Measurements published in ChEMBL document CHEMBL5257089, “Gamabufotalin Induces Apoptosis and Cytoprotective Autophagy through the mTOR Signaling Pathway in Hepatocellular Carcinoma” (J Nat Prod, 2023).
Activity calls are given as the source filed them. The rule behind the calls is not given here.

Tests used:
Hep 3B2 [1] = assay: Induction of autophagic flux in human Hep3B cells harbouring mCherry-egfp-LC3 assessed as increase in yellow puncta ratio at 10 nM by fluorescence imaging based assay; format: functional, cell-based
Hep 3B2 [2] = assay: Induction of apoptosis in human Hep3B cells assessed as early apoptotic cells at 10 nM incubated for 48 hrs in presence of gamabufotalin by Annexin V-FITC/PI staining based flow cytometry method (reference value: 1.3%); format: functional
Huh-7 [3] = assay: Induction of apoptosis in human Huh-7 cells assessed as viable cells at 10 nM incubated for 48 hrs by Annexin V-FITC/PI staining based flow cytometry method (reference value: 91.5%); format: functional; conditions: read-out: Activity
Hep 3B2 [4] = assay: Induction of apoptosis in human Hep3B cells assessed as decrease in bcl-2 level at 10 nM incubated for 48 hrs in presence of gamabufotalin by immunoblot analysis; format: functional, cell-based
Hep 3B2 [5] = assay: Induction of autophagy in human Hep3B cells assessed as rescue of mTOR phosphorylation level at upto 10 nM incubated for 48 hrs in presence of gamabufotalin by immunoblot method; format: functional, cell-based
Hep 3B2 [6] = assay: Induction of morphological changes in human Hep3B cells assessed as round cell morphology at upto 25 nM incubated for 48 hrs by bright field imaging analysis; format: functional, cell-based
Huh-7 [7] = assay: Induction of morphological changes in human Huh-7 cells assessed as adherent cells at upto 25 nM incubated for 48 hrs by bright field imaging analysis; format: functional, cell-based
Hep 3B2 [8] = assay: Induction of apoptosis in human Hep3B cells assessed as early apoptotic cells at 25 nM incubated for 48 hrs by Annexin V-FITC/PI staining based flow cytometry method (reference value: 3.9%); format: functional
Hep 3B2 [9] = assay: Induction of apoptosis in human Hep3B cells assessed as necrotic cells at 25 nM incubated for 48 hrs by Annexin V-FITC/PI staining based flow cytometry method (reference value: 0.2%); format: functional
Huh-7 [10] = assay: Induction of apoptosis in human Huh-7 cells assessed as necrotic cells at 15 nM incubated for 48 hrs by Annexin V-FITC/PI staining based flow cytometry method (reference value: 95.4%); format: functional
Huh-7 [11] = assay: Induction of apoptosis in human Huh-7 cells assessed as necrotic cells at 15 nM incubated for 48 hrs by Annexin V-FITC/PI staining based flow cytometry method (reference value: 0.7%); format: functional
Hep 3B2 [12] = assay: Induction of apoptosis in human Hep3B cells assessed as condensed nuclei at […] incubated for 48 hrs by Hoechst33258 staining based fluorescence microscopy; format: functional, cell-based
Huh-7 [13] = assay: Induction of apoptosis in human Huh-7 cells assessed as increase in PARP expression at upto 25 nM incubated for 48 hrs by Western blot analysis; format: functional, cell-based
Huh-7 [14] = assay: Induction of apoptosis in human Huh-7 cells assessed as viable cells at 25 nM measured after 48 hrs by annexin V-FITC/Propidium iodide staining based flow cytometric analysis (reference value: 91.7%); format: functional; conditions: read-out: Activity
Huh-7 [15] = assay: Induction of apoptosis in human Huh-7 cells assessed as late apoptotic cells at 25 nM measured after 48 hrs by annexin V-FITC/Propidium iodide staining based flow cytometric analysis (reference value: 6.1%); format: functional
Huh-7 [16] = assay: Induction of apoptosis in human Huh-7 cells assessed as viable cells at 25 nM measured after 48 hrs in presence of z-VAD-FMK by annexin V-FITC/Propidium iodide staining based flow cytometric analysis (reference value: 91.7%); format: functional; conditions: read-out: Activity
Huh-7 [17] = assay: Induction of apoptosis in human Huh-7 cells assessed as necrotic cells at 25 nM measured after 48 hrs in presence of z-VAD-FMK by annexin V-FITC/Propidium iodide staining based flow cytometric analysis (reference value: 0.0%); format: functional
Huh-7 [18] = assay: Induction of autophagic flux in human Huh-7 cells assessed as increase in LC3-I expression at upto 25 nM incubated for 48 hrs by Western blot analysis; format: functional, cell-based
Hep 3B2 [19] = assay: Induction of autophagic flux in human Hep3B cells assessed as rescue of LC3-II accumulation at 25 uM incubated for 48 hrs in presence of chloroquine by Western blot analysis; format: functional, cell-based
Huh-7 [20] = assay: Induction of autophagic flux in human Huh-7 cells assessed as rescue of p62 at 25 uM incubated for 48 hrs in presence of chloroquine by Western blot analysis; format: functional, cell-based
Hep 3B2 [21] = assay: Induction of apoptosis in human Hep3B cells assessed as early apoptotic cells at 25 nM incubated for 48 hrs by Annexin V-FITC/PI staining based flow cytometry method (reference value: 1.3%); format: functional
Hep 3B2 [22] = assay: Induction of apoptosis in human Hep3B cells assessed as late apoptotic cells at 25 nM incubated for 48 hrs in presence of chloroquine by Annexin V-FITC/PI staining based flow cytometry method (reference value: 3.5%); format: functional
Huh-7 [23] = assay: Induction of apoptosis in human Huh-7 cells assessed as viable cells at 25 nM incubated for 48 hrs by Annexin V-FITC/PI staining based flow cytometry method (reference value: 91.5%); format: functional; conditions: read-out: Activity
Huh-7 [24] = assay: Induction of apoptosis in human Huh-7 cells assessed as late apoptotic cells at 25 nM incubated for 48 hrs in presence of chloroquine by Annexin V-FITC/PI staining based flow cytometry method (reference value: 4.7%); format: functional
Hep 3B2 [25] = assay: Induction of apoptosis in human Hep3B cells assessed as increase in PARP level at 25 nM incubated for 48 hrs in presence of chloroquine by immunoblot analysis; format: functional, cell-based
Huh-7 [26] = assay: Induction of apoptosis in human Huh-7 cells assessed as increase in cleaved bax level at 25 nM incubated for 48 hrs in presence of chloroquine by immunoblot analysis; format: functional, cell-based
Hep 3B2 [27] = assay: Induction of apoptosis in human Hep3B cells assessed as necrotic cells at 25 nM incubated for 48 hrs by Annexin V-FITC/PI staining based flow cytometry method (reference value: 0.7%); format: functional
Hep 3B2 [28] = assay: Induction of apoptosis in human Hep3B cells assessed as viable cells at 25 nM incubated for 48 hrs in presence of 4,6-dimorpholino-N-(4-nitrophenyl)-1,3,5-triazin-2-amine by Annexin V-FITC/PI staining based flow cytometry method (Rvb =95.7%); format: functional; conditions: read-out: Activity
Huh-7 [29] = assay: Induction of apoptosis in human Huh-7 cells assessed as late apoptotic cells at 25 nM incubated for 48 hrs by Annexin V-FITC/PI staining based flow cytometry method (reference value: 3.8%); format: functional
Huh-7 [30] = assay: Induction of apoptosis in human Huh-7 cells assessed as upregulation of caspase-3 level […] incubated for 48 hrs in presence of 4,6-dimorpholino-N-(4-nitrophenyl)-1,3,5-triazin-2-amine by immunoblot analysis; format: functional, cell-based
Huh-7 [31] = assay: Induction of autophagy in human Huh-7 cells assessed as rescue of ULK1 phosphorylation level at upto 25 nM incubated for 48 hrs in presence of chloroquine by immunoblot method; format: functional, cell-based
Hep 3B2 [32] = assay: Induction of autophagic flux in human Hep3B cells harbouring mCherry-egfp-LC3 assessed as reduction in number of red puncta ratio at 25 nM incubated for 15 mins in presence of chloroquine by laser scanning confocal microscopic analysis; format: functional, cell-based
[33] = Toxicity in mouse assessed as effect on lungs at 5 mg/kg,ip administered every second day for 3 weeks by H and E staining based microscopic method; format: organism-based; conditions: in vivo, 504 h

What does the source list for `CCN(CC)CCCC(C)Nc1ccnc2cc(Cl)ccc12` (stereo not drawn) [CHLOROQUINE]?
Activity (Hep 3B2 [1]): Active; Activity (Hep 3B2 [2]): 17.9%; viability at 0.01 µM (Huh-7 [3]): 90.3%; Activity (Hep 3B2 [4]): Active; Activity (Hep 3B2 [5]): Active

Which Activity (Hep 3B2 [6]) does the source give for `C[C@]12CC[C@H](O)C[C@H]1CC[C@@H]1[C@@H]2[C@H](O)C[C@]2(C)[C@@H](c3ccc(=O)oc3)CC[C@]12O` [GAMABUFOTALIN] here?
Its Activity is “Active”.

What about the Activity (Huh-7 [7]) of the same molecule?
The Activity was “Active”.

What about the Activity (Hep 3B2 [8]) of the same molecule?
Its Activity is 9.3%.

What about the Activity (Hep 3B2 [9]) of the same molecule?
Its Activity is 0.6%.

And the Activity (Huh-7 [10])?
Its Activity is 67.6%.

What about the Activity (Huh-7 [11]) of the same molecule?
Its Activity is 4%.

What about the Activity (Hep 3B2 [12]) of the same molecule?
Its Activity is “Active”.

And the Activity (Huh-7 [13])?
The Activity was “Active”.

And the viability at 0.025 µM (Huh-7 [14])?
The viability at 0.025 µM was 72%.

And the Activity (Huh-7 [15])?
Its Activity is 20.3%.

What about the viability at 0.025 µM (Huh-7 [16]) of the same molecule?
The viability at 0.025 µM was 89%.

What about the Activity (Huh-7 [17]) of the same molecule?
Its Activity is 0.3%.

And the Activity (Huh-7 [18])?
The Activity was “Active”.

What about the Activity (Hep 3B2 [19]) of the same molecule?
The Activity was “Active”.

What about the Activity (Huh-7 [20]) of the same molecule?
Its Activity is “Active”.

And the Activity (Hep 3B2 [21])?
The Activity was 14.3%.

What about the Activity (Hep 3B2 [22]) of the same molecule?
The Activity was 17.4%.

And the viability at 0.025 µM (Huh-7 [23])?
The viability at 0.025 µM was 80%.

What about the Activity (Huh-7 [24]) of the same molecule?
The Activity was 19.1%.

And the Activity (Hep 3B2 [25])?
The Activity was “Active”.

And the Activity (Huh-7 [26])?
Its Activity is “Active”.

What about the Activity (Hep 3B2 [27]) of the same molecule?
The Activity was 0.5%.

What about the viability at 0.025 µM (Hep 3B2 [28]) of the same molecule?
Its viability at 0.025 µM is 67.2%.

And the Activity (Huh-7 [29])?
The Activity was 7.7%.

What about the Activity (Huh-7 [30]) of the same molecule?
The Activity was “Active”.

What about the Activity (Huh-7 [31]) of the same molecule?
Its Activity is “Active”.

What about the Activity (Hep 3B2 [32]) of the same molecule?
Its Activity is “Active”.

And the Activity [33]?
The Activity was “Non-Toxic”.
